The results in this text go back to patent US6337394B2, “Compounds” (AstraZeneca AB, priority 1997, dated 2002).

The structures appear in SMILES notation. A value given as a limit tells only on which side of the number the result lay.

The target of the test is T1, Human thrombin (Homo sapiens, UniProt P00734).
T1 construct: purchased Sigma Chem. Co. T 6769
Nature of the test: Determination of Thrombin Clotting Time (TT), Test A. The format is biochemical. The settings on record: concentration of inhibitor that doubles the thrombin clotting time for human plasma; pooled normal citrated human plasma, pH 7.4. The procedure: Determination of Thrombin Clotting Time (TT)
Human thrombin (T 6769, Sigma Chem. Co.) in buffer solution, pH 7.4, 100 μL, and inhibitor solution, 100 μL, were incubated for one min. Pooled normal citrated human plasma, 100 μL, was then added and the clotting time measured in an automatic device (KC 10, Amelumg).
The clotting time in seconds was plotted against the inhibitor concentration, and the IC50TT was determined by interpolation.
IC50TT is the concentration of inhibitor in the test that doubles the thrombin clotting time for human plasma.

As a reminder, the IC50 is the concentration at which inhibition is half-maximal. The low end stands for inhibition by little substance, the high end for a need for much substance. Take `COc1ccc(OC)c(C(CO)C(=O)N2CCCC2C(=O)NCc2ccc(C(=N)N)cc2C)c1` (single isomer, unassigned) [Example 2, (2,5-diMeO)Ph—(R or S)CH(CH2OH)—CO-Pro-Pab(2-Me)×HOAc]: the IC50 was below 300 nM.
